Measured values reported in patent US20080050764A1, “Method and Apparatus for Measuring Enviromental Allergen” (Japan Science and Technology Agency, priority 2003, published 2008).
Entries after “also recorded” stand apart in the source; their conditions may differ. * marks the point of attachment. AMC = Cc1cc(=O)oc2cc(N*)ccc12; Boc = CC(C)(C)OC(=O)*

Columns and labels:
[1] = test system: Cedar Pollen (Cedar Pollen-Cj Japanese Cedar); assay: Measurement of cedar pollen with protease substrates, fluorescence (Example 7); assay type: biochemical; conditions: substrate 10 mM in DMSO, 37° C. 15 minutes, excitation 355 nm
Experimental: • Cedar Pollen (Cedar Pollen-Cj Japanese Cedar) (produced by LSL) • Leu-MCA and Boc-Val-Leu-Lys-MCA as protease substrates (both of them were produced by PEPTIDE INSTITUTE INC)
Cedar pollen was suspended in phosphate buffer to a concentration of 1 mg/ml and the suspension was diluted with phosphate buffer as appropriate. Each of the dilutions in an amount of 45 μL was mixed with 5 μL of the substrate dissolved in DMSO to a concentration of 10 mM, and the resulting mixture was incubated at 37° C. for 15 minutes. Using a plate reader, excitation was carried out at a wavelength of 355 nm, and fluorescence intensity at 460 nm was measured.

[2] = test system: Mite Extract Df (Mite dermatophagoides farinae); assay: Protease substrate cleavage by mite extract, fluorescence (Example 9); assay type: biochemical; conditions: substrate 10 mM in DMSO, room temperature overnight, excitation 355 nm
Experimental: • Mite Extract Df (Mite dermatophagoides farinae) (obtained by extracting mites with phosphate buffer and freeze-drying the soluble fragment) (produced by LSL) • Protease Substrates (Met-MCA, Boc-Gln-Ala-Arg-MCA, Boc-Val-Leu-Lys-MCA, Bz-Arg-MCA, Glt-Ala-Ala-Phe-MCA (Glt means glutaryl) (All of them were produced by PEPTIDE INSTITUTE INC)
In phosphate buffer or water, mites were suspended to a concentration of 1 mg/ml, and the suspension was diluted with phosphate buffer as appropriate. Each of the dilutions in an amount of 50 μL was mixed with 5 μL of the substrate dissolved in DMSO to a concentration of 10 mM, and the resulting mixture was incubated at room temperature overnight. Using a plate reader, excitation was carried out at a wavelength of 355 nm, and fluorescence intensity at 460 nm was measured.

Cedar Pollen Extract = assay: Quantification of cedar pollen extract with protease substrates, fluorescence (Example 8); assay type: biochemical, Japanese Cedar; conditions: substrate 10 mM in DMSO, 37° C. 15 minutes, excitation 355 nm
Experimental: • Cedar Pollen Extract (Cedar Pollen Extrace-CJ) (produced by LSL) • Leu-MCA and Boc-Val-Leu-Lys-MCA as protease substrates (both of them were produced by PEPTIDE INSTITUTE INC)
The cedar pollen extract was the centrifugation supernatant obtained by stirring cedar pollen in 0.125 M NaHCO3 (pH8) for 16 hours, and lightly homogenizing the mixture, followed by centrifugation. The extract was suspended in 5 mM borate buffer (pH8.0) containing 0.9% NaCl to a concentration of 666 μg/ml, and the resulting mixture was diluted with phosphate buffer as appropriate. Each of the samples in an amount of 45 μL was mixed with 5 μL of the substrate dissolved in DMSO to a concentration of 10 mM, and the resulting mixture was incubated at 37° C. for 15 minutes. Using a plate reader, excitation was carried out at a wavelength of 355 nm, and fluorescence intensity at 460 nm was measured.

Row | Compound | reaction of substrate with cedar pollen (fluorescence intensity at 460 nm) [1] | cleavage of substrate by mite antigen (fluorescence intensity at 460 nm) [2] | reaction of substrate with cedar pollen extract (fluorescence intensity at 460 nm) (Cedar Pollen Extract)
1 | Cl.NC(N)=NCCCC(NC(=O)c1ccccc1)C(=O)Nc1ccc([N+](=O)[O-])cc1 (racemic) [Bz-DL-Arg-pNA.HCl] | reacts | – | –
2 | Cc1cc(=O)oc2cc(NC(=O)[C@H](CCCNC(=N)N)NC(=O)c3ccccc3)ccc12 [Bz-Arg-MCA] | – | not substantially cleaved | –
3 | Cc1cc(=O)oc2cc(NC(=O)C(N)CC(C)C)ccc12 (stereo not drawn) [Leu-MCA] | reacts | – | –
4 | CSCCC(N)C(=O)Nc1ccc2c(C)cc(=O)oc2c1 (stereo not drawn) [Met-MCA] | – | effectively measured | –
5 | Boc-Gln-Ala-Arg-{AMC} | – | effectively measured | –
6 | Boc-Val-Leu-Lys-{AMC} | fluorescence was not dependent on the amount of cedar pollen; also recorded: does not react | effectively measured; also recorded: reacts | fluorescence was not dependent on the amount of cedar pollen
7 | Glt-Ala-Ala-Phe-MCA | – | not substantially cleaved | –
